Laboratory results published in patent publication US20140249143A1, “Compounds And Methods For Enhancing Innate Immune Responses” (GlaxoSmithKline LLC, priority 2011, published 2014).

What was measured:
[1] = tested on: HCV genotype 1a subgenomic replicon; assay: Anti-Hepatitis C replicon assay, genotype 1a (luciferase); assay type: cell-based; conditions: Hepatitis C virus; luciferase activity measured 48 hours later; read-out: HCV Genotype 1A Replicon pEC50 (converted)
Procedure: (§1) Compounds were assayed for activity against HCV using the genotype 1a and 1b subgenomic replicon model systems. Stable cell lines bearing the genotype 1a and 1b replicons were used for screening of compounds. Both replicons are bicistonic and contain the firefly luciferase gene. The ET cell line is stably transfected with RNA transcripts harboring a I389luc-ubi-neo/NS3-3′/ET replicon with firefly luciferase-ubiquitin-neomycin phosphotransferase fusion protein and EMCV-IRES driven NS3-5B polyprotein containing the cell culture adaptive mutations (E1202G; T1280I; K1846T) (Krieger at al, 2001 and unpublished). The genotype 1a replicon is a stable cell line licensed from Apath LLC, modified to contain the firefly luciferase gene. The cells were grown in DMEM, supplemented with 10% fetal calf serum, 2 mM Glutamine, Penicillin (100 IU/mL)/Streptomycin (100 μg/mL), 1× nonessential amino acids, and 250-500 μg/mL G418 (“Geneticin”). They were all available through Life Technologies (Bethesda, Md.). The cells were plated at 0.5×10^4 cells/well in 384 well plates containing compounds. The final concentration of compounds ranged between 0.03 pM to 50 μm and the final DMSO concentration of 0.5-1%.
(§2) Luciferase activity was measured 48 hours later by adding a Steady glo (Promega, Madison, Wis.). Percent inhibition of replication data was plotted relative to no compound control. Under the same condition, cytotoxicity of the compounds was determined using cell titer glo (Promega, Madison, Wis.). IC50s were determined from a 10 point dose response curve using 3-4-fold serial dilution for each compound, which spans a concentration range>1000 fold. BioAssay determines the level of inhibition for each compound by normalizing cross-talk corrected plate values against the negative (low or background, cells with no compound present) and positive (high DMSO, no cells) controls to determine Percent Inhibition:
(§3) These normalized values are exported to IC50 where they are plotted against the molar compound concentrations using the standard four parameter logistic equation: […]

[2] = tested on: HCV genotype 1b subgenomic replicon; assay: Anti-Hepatitis C replicon assay, genotype 1b (luciferase); assay type: cell-based; conditions: Hepatitis C virus; luciferase activity measured 48 hours later; read-out: HCV Genotype 1B Replicon pEC50 (converted)
Procedure: as §1, §2, §3

ISGs and cytokines mRNA = assay: Dose response of ISG induction in vivo; design: species or system CD-1 mice; conditions: 0, 200, 600, 1000 mg/kg oral gavage, 24 h, blood and tissues
Procedure: Naive male CD-1 mice were obtained from Charles Rivers Laboratories (Wilmington, Mass.) and administered with Example 11 in a dose response (0, 200, 600, and 1000 mg/kg; three mice per dose group) by oral gavage. The dose of 200 mg/kg was in 0.5% HPMC/0.1% Tween 80 whereas the rest of doses were in 30% solutol/70% PEG400. At 24 h, the blood and tissues were collected and processed as described above. The gene expressions of various ISGs and cytokines were monitored by real time RT-PCR (see above for the details).

[3] = tested on: ISG56 (Interferon-Stimulated Gene 56) promoter ISRE; assay: ISG56 luciferase reporter assay in HEK 293 cells; assay type: cell-based; conditions: Homo sapiens, HEK293; HEK 293 reporter, 24 hours; 100% = small molecule control test compound; read-out: ISG56 (Average Max Response) %
Procedure: Compounds of the present invention were tested against a HEK (Human Embryonic Kidney) 293 cell line that was stably transfected with a firefly luciferase reporter gene under the control of the ISG56 (Interferon-Stimulated Gene 56) promoter ISRE (Interferon-Stimulated Response Element). While the ISRE is in the opposite orientation of the wild type promoter, literature^1 cites that the response elements are pallindromic and function properly in either orientation. ^1Reich, N., Evans, B., Levy, D., Fahey, D., Knight, E., Damell, J. E. (1987) Interferon-induced transcription of a gene encoding a 15-kDa protein depends on an upstream enhancer element. See, Proc. Natl. Acad. Sci. 84, (6394-6398).
In preparation for the assay, test compounds were serially diluted 3-fold in DMSO from a typical top concentration of 5 mM and plated at 0.2 μL in a 384-well, polystyrene, tissue culture treated plate with lid (Greiner Bio-One North America, Inc., Monroe, N.C.) to generate 11-point dose response curves in the assay. Low control wells (0% response) contained 0.2 μL of DMSO alone, and high control wells (100% response) contained 0.2 μL of a small molecule control test compound.
Frozen stocks of the transfected HEK 293 cells were washed and recovered in DMEM I Ham's F-12 media (Invitrogen Corporation, Carlsbad, Calif.) supplemented with 10% v/v qualified Australian fetal bovine serum (FBS) (Invitrogen Corporation, Carlsbad, Calif.), 1× GlutaMAX™ (Invitrogen Corporation, Carlsbad, Calif.), 1×MEM non-essential amino acids (NEAA) (Invitrogen Corporation, Carlsbad, Calif.) and 500 μg/ml Geneticin® (Invitrogen Corporation, Carlsbad, Calif.). The cells were diluted to 500,000 cells/mL in the supplemented DMEM/Ham's F-12 media, and 20 μL of the cell suspension were added to each well of the previously prepared 384-well compound plate, resulting in 10,000 cells/well. The plate, with lid, were placed in a 37° C., 5% CO2 humidified incubator for 24 hours.
Following incubation, the plates were removed and placed on the bench top without lids to equilibrate to room temperature for 30 minutes. Steady-Glo® (Promega Corporation, Madison, Wis.) was prepared according to the manufacturer's instructions, and 10 μL were added to each plate well. After a twenty minute incubation at room temperature, luminescence was read on a ViewLux™ (PerkinElmer Inc., Waltham, Mass.).
The data for dose responses were plotted as % activation versus compound concentration following normalization using the formula 100*((U−C1)/(C2−C1)), where U was the unknown value, C1 was the average of the low (0% response) control wells and C2 was the average of the high (100% response) control wells. Curve fitting was performed with the equation y=A+((B−A)/(1+(10^x/10^C)^D)), where A was the minimum response, B was the maximum response, C was the log(EC50) and D was the Hill slope. The results for each test compound were recorded as pEC50 values (—C in the above equation) and as max response values at a given concentration.

[4] = tested on: reconstructed human epidermis (RHE) keratinocytes; assay: JAK/STAT induction in reconstructed human epidermis (western blot, real-time PCR); assay type: cell-based; conditions: 10 μM (IFN-alpha 100 U/mL), 6 and 72 hrs
Procedure: First, reconstructed human epidermis (“RHE”) consisting of cultured human keratinocyte cells were incubated in triplicate with media containing either the media alone, media+0.1% DMSO, media containing 10 μM of several putative JAK/STAT activator compounds described herein in Tables 1 and 2 (Example 1, Example 2, Example 11, and compound no. 89 (as a negative control)), or media containing 100 U/mL of a positive control Interferon-alpha (IFN-alpha) recombinant protein at 37° C. in a humidified atmosphere containing 5% CO2, for 6 and 72 hours.
At the end of the incubation period, the RHE tissues were cut into two sections. One section was ¼ of the total size and the second section was […].

JAK/STAT = JAK/STAT activator assay; assay type: cell-based
STAT1 phosphorylation = STAT1 phosphorylation immunoblot in HCV replicon cells; assay type: cell-based; conditions: IFNα 100 U/ml
Procedure: (§4) IFNα (100 U/ml) and DMSO were included as controls. The total cell lysates were analyzed on a 4-20% SDS-PAGE gradient gel and followed by immunoblotting using anti-phopho STAT1 antibody (Cell Signaling). The level of actin was monitored as a loading control. The bands were visualized by the alkaline phosphatase activity conjugated with the secondary antibody (Promega) using ProtoBlot II AP System™ (Promega).

[5] = tested on: respiratory syncytial virus (RSV); assay: RSV plaque assay on HEp-2 cells; assay type: cell-based; conditions: 1000 U/ml
Procedure: A broad spectrum of antiviral activity of Example 1 was accessed by testing it for potency against other viruses. (See FIG. 8). […] RSV (long form) was inoculated on the layer of HEp-2 cells at multiplicity of infection of <0.001. After 4 hour post infection, the inoculum was replaced with 0.3% agarose containing MEM and various concentration of Example 1 or IFNα. The cells were incubated for up to 5-6 days until the plaques were visible. The cells were then fixed with 3% formaldehyde and stained with neutral red for visualization.

human JAK1 = target: T1, human JAK1 (Homo sapiens, UniProt P23458); assay: JAK1 reconstitution in U4A and 2fGH cells (phosphor-STAT1 western blot, Taqman mRNA); assay type: cell-based; conditions: Example 1 10 μM, IFNα 100 U/ml
T1 construct: expressed in transfected cells; host or cells: U4A cells (JAK1-deficient derivative of the human fibroblast line 2fGH), transduced with a baculovirus mammalian expression system
Procedure: 2fGH and U4A cells were obtained from the Cleveland Clinic. 2fGH is a human fibroblast cell line and U4A cell line is a derivative 2fGH harboring a defect in JAK1 expression (Muller, et al., Nature 366, 129-135 (1993)). Green fluoroscent protein (GFP) or human JAK1 was transduced in U4A cells by baculovirus mammalian expression system. After 24 hours post transduction, the cells were treated with DMSO, Example 1 (10 μM), IFNα (100 U/ml), IFNβ (100 U/ml), or IFNγ (100 U/ml). Untransduced U4A cells and 2fGH cells were included as controls for 6 or 18 hours. The cells were harvested at indicated time points and used for detecting phosphor-STAT1 by western blot (FIG. 10, panel A) or for mRNA analysis by Taqman quantitation (FIG. 10, panel B).
as §4, with “The” for “IFNα (100 U/ml) and DMSO were included as controls. The”, “system” for “System™”
Gene expression was measured using TaqMan Fast Universal PCR Master Mix (Applied Biosystems) and gene specific probes and murine primers in HT7900 FAST System (Invitrogen). As housekeeping genes, actin and GAPDH were used for normalization. Data was calculated by the ΔΔCt method and fold change determined compared to non-treated control samples.

[6] = tested on: interferon stimulated genes (ISGs); assay: Expression of interferon stimulated genes in HCV replicon cells (real time RT-PCR); assay type: cell-based; conditions: Example 1 2 μM, IFNα 100 U/ml
From the text: The up-regulation of interferon stimulated genes upon treatment with Example 1 was monitored by quantitative real time RT-PCR using specific primers for each gene, as shown in FIG. 3. […] Total RNA was isolated using RNeasy 96 kit (Qiagen) and converted to cDNA using High Capacity cDNA reverse transcription kit (Applied Biosystems). For real time PCR, the cDNA was used for PCR reactions using TaqMan Fast Universal PCR master mix (Applied Biosystems) and specific primers (Applied Biosystems). As housekeeping genes, actin and GAPDH were used for normalization. Data was calculated by the ΔΔCt method and fold change determined compared to DMSO-treated control samples.

T1 sequence (P23458 whole entry): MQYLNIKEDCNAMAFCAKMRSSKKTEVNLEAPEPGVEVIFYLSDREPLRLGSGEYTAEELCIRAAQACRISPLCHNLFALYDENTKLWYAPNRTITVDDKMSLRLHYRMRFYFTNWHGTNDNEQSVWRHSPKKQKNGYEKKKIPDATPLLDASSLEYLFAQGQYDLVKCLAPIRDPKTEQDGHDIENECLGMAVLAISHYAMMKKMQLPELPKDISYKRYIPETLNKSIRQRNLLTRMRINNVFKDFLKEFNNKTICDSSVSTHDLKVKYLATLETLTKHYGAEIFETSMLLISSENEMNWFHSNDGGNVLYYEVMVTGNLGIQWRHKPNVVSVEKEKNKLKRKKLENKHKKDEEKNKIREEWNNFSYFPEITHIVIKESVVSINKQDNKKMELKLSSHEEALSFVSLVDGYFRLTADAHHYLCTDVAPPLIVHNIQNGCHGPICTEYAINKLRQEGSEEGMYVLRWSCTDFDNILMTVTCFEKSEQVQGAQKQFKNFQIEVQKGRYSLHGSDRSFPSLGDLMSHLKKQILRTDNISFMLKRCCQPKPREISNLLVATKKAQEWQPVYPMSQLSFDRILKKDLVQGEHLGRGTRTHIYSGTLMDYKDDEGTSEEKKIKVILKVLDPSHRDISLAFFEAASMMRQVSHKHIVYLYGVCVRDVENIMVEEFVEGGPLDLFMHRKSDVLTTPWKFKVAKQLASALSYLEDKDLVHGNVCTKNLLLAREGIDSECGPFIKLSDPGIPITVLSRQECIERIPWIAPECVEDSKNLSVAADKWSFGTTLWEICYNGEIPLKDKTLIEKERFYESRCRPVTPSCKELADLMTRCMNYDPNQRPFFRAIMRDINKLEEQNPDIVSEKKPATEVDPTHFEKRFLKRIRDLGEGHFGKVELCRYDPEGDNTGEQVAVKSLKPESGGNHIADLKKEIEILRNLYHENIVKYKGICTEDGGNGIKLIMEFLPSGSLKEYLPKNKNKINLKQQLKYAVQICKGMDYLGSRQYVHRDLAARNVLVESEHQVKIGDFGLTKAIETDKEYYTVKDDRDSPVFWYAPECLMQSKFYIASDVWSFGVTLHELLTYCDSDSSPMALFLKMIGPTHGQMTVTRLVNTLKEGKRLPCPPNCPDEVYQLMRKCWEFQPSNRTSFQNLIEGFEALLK

Molecule	EC50 [1] [nM]	EC50 [2] [nM]	induction of ISG in dose response (ISGs and cytokines mRNA)	Emax [3] [%]	Stat1 phosphorylation (western blot) [4]	result in the JAK/STAT activator assay (JAK/STAT)	STAT1 phosphorylation (STAT1 phosphorylation; Example 1 2 uM, 1 h, 6 h, 24 h)	time at which phosphorylated STAT1 peaked (STAT1 phosphorylation) [h]	RSV plaques [5]	activation of STAT1 in U4A cells transduced with JAK1 (human JAK1)	p-STAT1 in U4A cells (JAK1 deficient) transduced with GFP (human JAK1)	time of maximum induction of ISGs [6] [h]
FC(F)(F)c1nc(C(F)(F)F)c2ccc3nc(-c4nnco4)cn3c2n1 [Compound 11, 4-(1,3,4-oxadiazol-2-yl)-10,12-bis(trifluoromethyl)-2,5,11,13-tetraazatricyclo[7.4.0.0^2,^6]trideca-1(9),3,5,7,10,12-hexaene]	251	794	correlated with given doses in all tissues	293	Stat1 phosphorylation							
FC(F)(F)c1cc(C(F)(F)F)c2ccc3nc(-c4nncs4)cn3c2n1 [Compound 89]					did not show phosphorylation of Stat1	negative						
IFNα					Stat1 phosphorylation		induced STAT1 phosphorylation	1	significantly reduced the number and size of the plaques	activation of STAT1 was observed	not present	4
